Source: patent US20240156999A1, “MULTIMERIC CHELATOR COMPOUNDS FOR USE IN TARGETED RADIOTHERAPY” (Bayer Aktiengesellschaft, priority 2021, published 2024)

Tests used:
[1] = Radiochemical purity (RCP) by iTLC after radiolabeling with Ac-225; format: physicochemical; conditions: labelling concentration 0.02 mM
Protocol: (§1) Aliquots of Ac-225 in 0.04 M HCl or Ra-223 in 0.05 M HCl were withdrawn into Eppendorf tubes. The radioactivity in each tube was measured by HPGe detector. Solutions of compounds in 0.1 M sodium acetate, pH 5-5.5 (with additional 0.1 M NaCl for ACC solutions) were added to the tubes. RAC was in the range of 1-5 M Bq/mL and specific activity in the range of 2-200 kBq/nmol. The labelling solutions were left for 60-90 min at room temperature.
(§2) Radiochemical purity (RCP) of the labeled compounds was determined by iTLC. iTLC strips were cut from silica impregnated chromatography paper, approx. 1 cm wide and 11 cm long. The strips were marked with a pen at 1 cm (application point), 4 cm (cut line for ACCs) or 5 cm (cut line for chelators) and 8 cm (front line). A beaker was filled up to 0.5 cm with 0.1 M citrate in 0.9% NaCl, pH 5.5. 1-10 μL of the radiolabeled compound was added to the application point and the strips immediately placed vertically in the beaker. The strips were removed when the solvent front reached the front line and then cut in two sections at the cut line. Each section was measured using a HPGe detector (ORTEC) to determine the radioactivity origin from the nuclide of interest. The RCP, in percentage, forthe nuclide of interest was calculated using the following equation: […]

[2] = Radio-HPLC analysis of Ra-223 labelled compound with peak fractioning; format: physicochemical
Protocol: Radiolabeled compounds were analyzed by radio-HPLC using either a) Vanquish HPLC system (Thermo) equipped with a diode array detector and a Flowstar LB 514 radio detector (Berthold technologies); or b) an 1290 Infinity-II HPLC system (Agilent) equipped with a diode array detector and flow-count radio detector (Eckert & Ziegler).
Labelled chelator compounds were eluted using A=40 mM TRIS/6 mM citrate/2 mM EDTA and B=ACN/MeOH (8:2); aKinetexC18 (30×2.1 mm), 1.7 μm, 100 Å, Phenomenex); gradient 5-50% B for 10 min; flow rate of 0.3 mL/min or a Discovery RP amide c16 (150×2.1mm), 5 um, 100 Å, Gradient: 5-50% B for 12.5 min; flow rate of 0.6 mL/min.
Radio-HPLC peak fractioning was performed to determine the radionuclide(s) associated to each radio peak. The collected peak fractions were analysed using an HPGe detector.

[3] = Radiochemical purity (RCP) by iTLC after radiolabeling with Ra-223; format: physicochemical; conditions: for labelling efficiency with radium-223: compared to monomeric macropa, at 0.1 and 0.02 mM, as low as 0.005 mM for Oct2; for RCP Ra-223: iTLC
Protocol: as §1, §2

[4] = cited from earlier work
[5] = labelling concentration 0.02 mM
[6] = labelling concentration 0.005 mM
[7] = labelling concentration 0.27 mM

SMILES | RCP Ac-225 [1] [%] | labelling efficiency with radium-223 [3] | RCP Ra-223 [3, 5] [%] | RCP Ra-223 [3, 6] [%] | also measured
O=C(O)c1cccc(CN2CCOCCOCCN(Cc3cccc(C(=O)NCCCC[C@@H](NC(=O)c4cccc(CN5CCOCCOCCN(Cc6cccc(C(=O)O)n6)CCOCCOCC5)n4)C(=O)O)n3)CCOCCOCC2)n1 [Dim3, 6-[[16-[[6-[[(5R)-5-carboxy-5-[[6-[[16-[(6-carboxy-2-pyridyl)methyl]-1,4,10,13-tetraoxa-7,16-diazacyclooctadec-7-yl]methyl]pyridine-2-carbonyl]amino]pentyl]carbamoyl]-2-pyridyl]methyl]-1,4,10,13-tetraoxa-7,16-diazacyclooctadec-7-yl]methyl]pyridine-2-carboxylic acid] | 100 | – | – | – | RCP Ra-223 ([3]; labelling concentration 0.2 mM): 32%
O=C(CCc1cc(CN2CCOCCOCCN(Cc3cccc(C(=O)O)n3)CCOCCOCC2)nc(C(=O)O)c1)NCCN(CCCN(CCNC(=O)CCc1cc(CN2CCOCCOCCN(Cc3cccc(C(=O)O)n3)CCOCCOCC2)nc(C(=O)O)c1)CCNC(=O)CCc1cc(CN2CCOCCOCCN(Cc3cccc(C(=O)O)n3)CCOCCOCC2)nc(C(=O)O)c1)CCNC(=O)CCc1cc(CN2CCOCCOCCN(Cc3cccc(C(=O)O)n3)CCOCCOCC2)nc(C(=O)O)c1 [Tet5, 4,4′-[7,11-bis(2-{3-[2-carboxy-6-({16-[(6-carboxypyridin-2-yl)methyl]-1,4,10,13-tetraoxa-7,16-diazacyclooctadecan-7-yl}methyl)pyridin-4-yl]propanamido}ethyl)-3,15-dioxo-4,7,11,14-tetraazaheptadecane-1,17-diyl]bis[6-({16-[(6-carboxypyridin-2-yl)methyl]-1,4,10,13-tetraoxa-7,16-diazacyclooctadecan-7-yl}methyl)pyridine-2-carboxylic acid]] | – | high labelling efficiency | 95 | 36 | –
O=C(O)c1cccc(CN2CCOCCOCCN(Cc3cccc(C(=O)O)n3)CCOCCOCC2)n1 [Macropa, 6,6′-[1,4,10,13-tetraoxa-7,16-diazacyclooctadecane-7,16-diylbis(methylene)]dipyridine-2-carboxylic acid, reference compound] | 100 | – | – | 8 | selectivity for large over small alkaline earth metals [4]: excellent selectivity; affinity for Ba2+ ([4]; pH 7.4): highest affinity; complexation of radium-223 ([3]; at 0.1, 0.02 and 0.005 mM concentrations): no complexation of radium-223 was observed; RCP Ra-223 [3, 7]: 12%
O=C(CCc1cc(CN2CCOCCOCCN(Cc3cccc(C(=O)O)n3)CCOCCOCC2)nc(C(=O)O)c1)NCCCC[C@H](NC(=O)CCc1cc(CN2CCOCCOCCN(Cc3cccc(C(=O)O)n3)CCOCCOCC2)nc(C(=O)O)c1)C(=O)NCCN(CCCN(CCNC(=O)[C@H](CCCCNC(=O)CCc1cc(CN2CCOCCOCCN(Cc3cccc(C(=O)O)n3)CCOCCOCC2)nc(C(=O)O)c1)NC(=O)CCc1cc(CN2CCOCCOCCN(Cc3cccc(C(=O)O)n3)CCOCCOCC2)nc(C(=O)O)c1)CCNC(=O)[C@H](CCCCNC(=O)CCc1cc(CN2CCOCCOCCN(Cc3cccc(C(=O)O)n3)CCOCCOCC2)nc(C(=O)O)c1)NC(=O)CCc1cc(CN2CCOCCOCCN(Cc3cccc(C(=O)O)n3)CCOCCOCC2)nc(C(=O)O)c1)CCNC(=O)[C@H](CCCCNC(=O)CCc1cc(CN2CCOCCOCCN(Cc3cccc(C(=O)O)n3)CCOCCOCC2)nc(C(=O)O)c1)NC(=O)CCc1cc(CN2CCOCCOCCN(Cc3cccc(C(=O)O)n3)CCOCCOCC2)nc(C(=O)O)c1 [Oct2] | – | high labelling efficiency | – | 64 | –
Nc1cc(CN2CCOCCOCCN(Cc3cccc(C(=O)O)n3)CCOCCOCC2)nc(C(=O)O)c1 [Macropa-NH2, reference compound] | 99 | – | – | – | RCP Ra-223 ([3]; labelling concentration 0.1 mM): 2%; RCP Ra-223 [3, 7]: 12%

Continued, in another order:

RCP Ac-225 [1] [%] | labelling efficiency with radium-223 [3] | RCP Ra-223 [3, 5] [%] | RCP Ra-223 [3, 6] [%] | SMILES | also measured
99 | high labelling efficiency | 95 | – | COC(=O)c1cccc(CN2CCOCCOCCN(Cc3cc(NC(=O)COCC(=O)NCCN(CCCN(CCNC(=O)COCC(=O)Nc4cc(CN5CCOCCOCCN(Cc6cccc(C(=O)OC)n6)CCOCCOCC5)nc(C(=O)OC)c4)CCNC(=O)COCC(=O)Nc4cc(CN5CCOCCOCCN(Cc6cccc(C(=O)OC)n6)CCOCCOCC5)nc(C(=O)OC)c4)CCNC(=O)COCC(=O)Nc4cc(CN5CCOCCOCCN(Cc6cccc(C(=O)OC)n6)CCOCCOCC5)nc(C(=O)OC)c4)cc(C(=O)OC)n3)CCOCCOCC2)n1 [Tet1] | labeling of solution with Ra-223 ([2]; 0.02 mM solution): efficient labeling; wash through of free radioactivity in the void volume ([2]; radio HPLC, Ra-223 labelled): almost no wash through of free radioactivity
100 | high labelling efficiency | 80 | – | COC(=O)c1cccc(CN2CCOCCOCCN(Cc3cc(NC(=O)COCC(=O)NCCN(CCN)CCCN(CCN)CCNC(=O)COCC(=O)Nc4cc(CN5CCOCCOCCN(Cc6cccc(C(=O)OC)n6)CCOCCOCC5)nc(C(=O)OC)c4)cc(C(=O)OC)n3)CCOCCOCC2)n1 [Dim1, Dimethyl 4,4′-{[9,13-bis(2-aminoethyl)-1,5,17,21-tetraoxo-3,19-dioxa-6,9,13,16-tetraazahenicosane-1,21-diyl]diimino}bis{6-[(16-{[6-(methoxycarbonyl)pyridin-2-yl]methyl}-1,4,10,13-tetraoxa-7,16-diazacyclooctadecan-7-yl)methyl]pyridine-2-carboxylate}] | –
100 | – | – | – | O=C(O)c1cccc(CN2CCOCCOCCN(Cc3cccc(CN4CCOCCOCCN(Cc5cccc(C(=O)O)n5)CCOCCOCC4)n3)CCOCCOCC2)n1 [Dim2, 6,6′-[pyridine-2,6-diylbis(methylene-1,4,10,13-tetraoxa-7,16-diazacyclooctadecane-16,7-diylmethylene)]dipyridine-2-carboxylic acid] | RCP Ra-223 ([3]; labelling concentration 0.2 mM): 11%
– | high labelling efficiency | 74 | – | O=C(COCC(=O)Nc1cc(CN2CCOCCOCCN(Cc3cccc(C(=O)O)n3)CCOCCOCC2)nc(C(=O)O)c1)NCCN(CCCN(CCNC(=O)COCC(=O)Nc1cc(CN2CCOCCOCCN(Cc3cccc(C(=O)O)n3)CCOCCOCC2)nc(C(=O)O)c1)CCNC(=O)COCC(=O)Nc1cc(CN2CCOCCOCCN(Cc3cccc(C(=O)O)n3)CCOCCOCC2)nc(C(=O)O)c1)CCNC(=O)COCC(=O)Nc1cc(CN2CCOCCOCCN(Cc3cccc(C(=O)O)n3)CCOCCOCC2)nc(C(=O)O)c1 [Tet2, 4,4′-[(9,13-bis{2-[2-(2-{[2-carboxy-6-({16-[(6-carboxypyridin-2-yl)methyl]-1,4,10,13-tetraoxa-7,16-diazacyclooctadecan-7-yl}methyl)pyridin-4-yl]amino}-2-oxoethoxy)acetamido]ethyl}-1,5,17,21-tetraoxo-3,19-dioxa-6,9,13,16-tetraazahenicosane-1,21-diyl)diimino]bis[6-({16-[(6-carboxypyridin-2-yl)methyl]-1,4,10,13-tetraoxa-7,16-diazacyclooctadecan-7-yl}methyl)pyridine-2-carboxylic acid]] | –
– | high labelling efficiency | 89 | – | COC(=O)c1cccc(CN2CCOCCOCCN(Cc3cc(NC(=O)COCC(=O)NCCN(CCN)CCCN(CCNC(=O)COCC(=O)Nc4cc(CN5CCOCCOCCN(Cc6cccc(C(=O)OC)n6)CCOCCOCC5)nc(C(=O)OC)c4)CCNC(=O)COCC(=O)Nc4cc(CN5CCOCCOCCN(Cc6cccc(C(=O)OC)n6)CCOCCOCC5)nc(C(=O)OC)c4)cc(C(=O)OC)n3)CCOCCOCC2)n1 [Tri1] | –
